PubChem BioAssay (NCI)
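Step 1: Grow cells in 96-well plates. Step 2: Expose to compound for 48 hours at 5 concentrations. Step 3: Interpolate endpoints linearly; if unreached, use highest concentration. TGI marks complete inhibition of growth.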

How the values were obtained:
Test in all cases: inhibition of tumour cell growth, NCI panel, 48 h
SF-295 CNS = test system: SF-295 CNS
DU-145 prostate = test system: DU-145 prostate
MALME-3M melanoma = test system: MALME-3M melanoma
NCI-H522 lung = test system: NCI-H522 lung
UACC-257 melanoma = test system: UACC-257 melanoma
CAKI-1 renal = test system: CAKI-1 renal
RXF 393 renal = test system: RXF 393 renal
HCT-116 colon = test system: HCT-116 colon
LOX IMVI melanoma = test system: LOX IMVI melanoma
T-47D breast = test system: T-47D breast
NCI-H460 lung = test system: NCI-H460 lung
786-0 renal = test system: 786-0 renal
EKVX NSCLC = test system: EKVX NSCLC
SK-MEL-5 melanoma = test system: SK-MEL-5 melanoma
HOP-92 NSCLC = test system: HOP-92 NSCLC
SNB-75 CNS = test system: SNB-75 CNS
HS 578T breast = test system: HS 578T breast
HL-60(TB) leukemia = test system: HL-60(TB) leukemia
HCT-15 colon = test system: HCT-15 colon
SW-620 colon = test system: SW-620 colon
U251 CNS = test system: U251 CNS
HOP-62 NSCLC = test system: HOP-62 NSCLC
CCRF-CEM leukemia = test system: CCRF-CEM leukemia
OVCAR-4 ovarian = test system: OVCAR-4 ovarian
A549 NSCLC = test system: A549 NSCLC
SNB-19 CNS = test system: SNB-19 CNS
NCI-H226 lung = test system: NCI-H226 lung
HT29 colon = test system: HT29 colon
IGROV1 ovarian = test system: IGROV1 ovarian
SR leukemia = test system: SR leukemia
NCI-H23 lung = test system: NCI-H23 lung
PC-3 prostate = test system: PC-3 prostate
OVCAR-5 ovarian = test system: OVCAR-5 ovarian
SK-MEL-2 melanoma = test system: SK-MEL-2 melanoma
MOLT-4 leukemia = test system: MOLT-4 leukemia
SF-268 CNS = test system: SF-268 CNS
COLO 205 colon = test system: COLO 205 colon
UACC-62 melanoma = test system: UACC-62 melanoma
M14 melanoma = test system: M14 melanoma
MDA-MB-231 breast = test system: MDA-MB-231 breast
TK-10 renal = test system: TK-10 renal
KM12 colon = test system: KM12 colon
HCC-2998 colon = test system: HCC-2998 colon
OVCAR-3 ovarian = test system: OVCAR-3 ovarian
SF-539 CNS = test system: SF-539 CNS
UO-31 renal = test system: UO-31 renal
SK-OV-3 ovarian = test system: SK-OV-3 ovarian
MCF7 breast = test system: MCF7 breast
A498 renal = test system: A498 renal
ACHN renal = test system: ACHN renal
SK-MEL-28 melanoma = test system: SK-MEL-28 melanoma
MDA-N = test system: MDA-N
K-562 leukemia = test system: K-562 leukemia
RPMI-8226 leukemia = test system: RPMI-8226 leukemia
SN12C renal = test system: SN12C renal
OVCAR-8 ovarian = test system: OVCAR-8 ovarian
MDA-MB-435 = test system: MDA-MB-435
NCI/ADR-RES ovarian = test system: NCI/ADR-RES ovarian

SMILES: COc1ccc2nc3c([N+](=O)[O-])ccc4c3c(c2c1)NCCN4CCO
- TGI (SF-295 CNS): 1.71 µM
- TGI (DU-145 prostate): 5.34 µM
- TGI (MALME-3M melanoma): 1.45 µM
- TGI (NCI-H522 lung): 1.24 µM
- TGI (UACC-257 melanoma): 1.5 µM
- TGI (CAKI-1 renal): 3.06 µM
- TGI (RXF 393 renal): 1.78 µM
- TGI (HCT-116 colon): 1.22 µM
- TGI (LOX IMVI melanoma): 0.792 µM
- TGI (T-47D breast): 3.68 µM
- TGI (NCI-H460 lung): 1.18 µM
- TGI (786-0 renal): 1.46 µM
- TGI (EKVX NSCLC): 2.97 µM
- TGI (SK-MEL-5 melanoma): 1.15 µM
- TGI (HOP-92 NSCLC): 1.59 µM
- TGI (SNB-75 CNS): 1.88 µM
- TGI (HS 578T breast): 2.79 µM
- TGI (HL-60(TB) leukemia): 1.25 µM
- TGI (HCT-15 colon): 2.68 µM
- TGI (SW-620 colon): 3.1 µM
- TGI (U251 CNS): 1.85 µM
- TGI (HOP-62 NSCLC): 2.28 µM
- TGI (CCRF-CEM leukemia): 2 µM
- TGI (OVCAR-4 ovarian): 2.39 µM
- TGI (A549 NSCLC): 2.68 µM
- TGI (SNB-19 CNS): 3.08 µM
- TGI (NCI-H226 lung): 0.958 µM
- TGI (HT29 colon): 2.02 µM
- TGI (IGROV1 ovarian): 3.22 µM
- TGI (SR leukemia): 0.455 µM
- TGI (NCI-H23 lung): 2.45 µM
- TGI (PC-3 prostate): 1.56 µM
- TGI (OVCAR-5 ovarian): 2.95 µM
- TGI (SK-MEL-2 melanoma): 1.87 µM
- TGI (MOLT-4 leukemia): 0.806 µM
- TGI (SF-268 CNS): 6.26 µM
- TGI (COLO 205 colon): 1.74 µM
- TGI (UACC-62 melanoma): 1.07 µM
- TGI (M14 melanoma): 1.78 µM
- TGI (MDA-MB-231 breast): 2.05 µM
- TGI (TK-10 renal): 4.51 µM
- TGI (KM12 colon): 2.35 µM
- TGI (HCC-2998 colon): 1.91 µM
- TGI (OVCAR-3 ovarian): 2.91 µM
- TGI (SF-539 CNS): 1.56 µM
- TGI (UO-31 renal): 1.47 µM
- TGI (SK-OV-3 ovarian): 3.58 µM
- TGI (MCF7 breast): 3.19 µM
- TGI (A498 renal): 2 µM
- TGI (ACHN renal): 2.25 µM
- TGI (SK-MEL-28 melanoma): 2.03 µM
- TGI (MDA-N): 1.64 µM
- TGI (K-562 leukemia): 1.08 µM
- TGI (RPMI-8226 leukemia): 2.61 µM
- TGI (SN12C renal): 2.34 µM
- TGI (OVCAR-8 ovarian): 2.01 µM
- TGI (MDA-MB-435): 1.79 µM
- TGI (NCI/ADR-RES ovarian): 4.41 µM
